Results: US20260053767A1, “Hepatoprotective Compositions And Methods” (Jemyll, Ltd., priority 2022, published 2026)

Legend:
[1] = tested on: SIRT1; assay: SIRT1 levels in liver cells; format: cell-based; settings: AML-12 liver cells, 6 hours; p=0.127
Excerpt: (§1) To that end, the inventors used endothelial cells (EOMA cells) and liver cells (AML-12 cells) in vitro and quantified various markers in response to exposure of the cells to environmental challenge in the presence and absence of DDA at low concentrations. Unless indicated otherwise, the DDA concentration in the in vitro experiments was 5 mcg per microliter. More specifically, the inventors measured p-H2AX protein levels as a marker for DNA damage, PGC-1α protein levels as a marker for mitochondrial biogenesis, NAMPT enzyme levels as a marker for potential for NAD+ production, and total antioxidant capacity as a marker of cellular health. In addition, the inventors also measured global SIRT activity as a gauge of activity for all SIRT enzymes, and in particular SIRT1 enzyme levels as markers for autophagy and various beneficial processes associated with a caloric restricted diet, and SIRT3 levels as markers for mitochondrial function and longevity.
In still further experiments, the inventors also investigated whether or not DDDA could have stimulatory effects on selected SIRT proteins. More specifically, the inventors tested the effects of DDDA on SIRT3 and SIRT1, and exemplary results are shown in FIG. 9 and FIG. 10, respectively. […] N=5-6 plates per treatment. […] Beyond this trend, however, no other observations were evident. N=5-6 plates per treatment.

[2] = NIDDM patients, intravenous infusion; cited from earlier work
[3] = tested on: NAMPT; assay: NAMPT enzyme levels in endothelial cells; format: cell-based; settings: EOMA endothelial cells, 6 hours; p=0.018
Excerpt: as §1
In yet a further series of experiments, the inventors also sought to confirm whether or not DDDA would have a modulatory effect in endothelial cells using the same markers and experimental conditions as noted above.
On the other hand, where endothelial cells were exposed to DDDA, there was a significant difference in NAMPT enzyme levels as is exemplarily depicted in FIG. 15.

[4] = tested on: liver of rats; assay: qReal time-PCR gene expression in the liver of rats from in vivo study 1 and 2; parameters: species or system Wistar rats
Method: Panels A and B. • Study 1: Twenty adult Wistar rats, aged 8-10 weeks, were included in the study. The rats were housed in individual cages at 22° C. with 12-h light cycles and had ad libitum access to food and water. Rats were fed a high fat high cholesterol diet (44% Carbohydrate, 14% Protein, 42% fat+0.2% Cholesterol) for 4 weeks in the presence or absence of 1% Dodecanedioic acid, sodium salt dissolved in the water (FIG. 25, Panel A). Body weight and food/water intake were monitored weekly. • Study 2: Twenty adult Wistar rats, aged 8-10 weeks, were included in the study. The rats were housed in individual cages at 22° C. with 12-h light cycles and had ad libitum access to food and water. Rats were fed a high fat-high cholesterol diet (44% Carbohydrate, 14% Protein, 42% fat+0.2% Cholesterol). After 9 weeks of diet, rats were randomly assigned to one of the following groups: 4 weeks of high fat-high cholesterol diet or 4 weeks of high fat-high cholesterol diet and 1% Dodecanedioic acid, sodium salt dissolved in the water (FIG. 25, Panel B). Body weight and food/water intake were monitored weekly.
Total RNA from human primary hepatocytes was extracted using the RNeasy Plus Mini Kit according to the indications provided by the company. A small aliquot of total RNA obtained (3 μl) was subjected to qualitative and quantitative control by using the microdrop. The qualitative and quantitative assessment of the individual samples was determined using a dedicated software. The total RNA was reverse transcribed into cDNA by using iScript RT. SYBR Green gene expression assays were performed according to the manufacturer's instruction using the iQTMSYBR Green Supermix and the CFX96 Touch Real-Time PCR Detection System. For this purpose, the following pairs of primer were used: solute carrier family 13 member 5 (SLC13A5) (forward 5′ […] 3′ (SEQ ID NO:1) and reverse 5′ […] 3′ (SEQ ID NO:2)), Diacylglycerol O-Acyltransferase 1 (DGAT1) (forward 5′ […] 3′ (SEQ ID NO:3) and reverse 5′ […] 3′ (SEQ ID NO:4)), Fatty Acid Synthase (FASN) (forward 5′ […] 3′ (SEQ ID NO:5) and reverse 5′ […] 3′ (SEQ ID NO:6)), carnitine palmitoyltransferase 1A (CPT1A) (forward 5′ […] 3′ (SEQ ID NO:7) and reverse 5′ […] 3′ (SEQ ID NO:8)) and Acetyl-CoA carboxylase (ACC1) (forward 5′ […] 3′ (SEQ ID NO:9) and reverse 5′ […] 3′ (SEQ ID NO:10)). mRNA expression levels were normalized to B2-microglobulin (forward 5′[…] 3′ (SEQ ID NO:11); and reverse 5′[…] 3′ (SEQ ID NO:12)) and quantification of relative gene expression, presented as percentage of the relevant baseline, was calculated using the 2-ACT (comparative threshold) method.
C12 decrease de novo lipogenesis and an increase in fatty acid oxidation in vitro and in vivo: To test the hypothesis that C12 could affect de novo lipogenesis and fatty acid beta-oxidation, human primary hepatocytes were stimulated with palmitic acids (0.4 mM) in the presence or absence of C12 1% (v/w). […] Similar results were also observed in our in vivo experiments. […] Data from in vivo study 1 and 2 were pooled together.

[5] = in vivo study 1 and 2 pooled, vs control group
[6] = rats from in vivo study 1 and 2, vs control group

SMILES: O=C(O)CCCCCCCCCCC(=O)O [DDDA, dodecanedioic acid]
- SIRT1 levels [1]: trended upwards
- plasma glucose levels during infusion [2]: significantly decreased
- NAMPT enzyme levels [3]: increased NAMPT enzyme levels
- ACC1 (de novo lipogenesis enzyme) in liver [4, 5]: decrease
- CPT1A (fatty acid beta-oxidation enzyme) in liver [4, 5]: significant increase
- DGAT (de novo lipogenesis enzyme) in liver [4, 5]: decrease
- FASN (de novo lipogenesis enzyme) in liver [4, 5]: decrease
- gene expression of citrate transporter SLC13A5 in liver [4, 5]: decrease
- COLA1A gene expression in liver [4, 6]: decreased expression
- TGFβ gene expression in liver [4, 6]: decreased expression
- αSMA gene expression in liver [4, 6]: decreased expression
